≈ marks a conversion by molar mass, not a printed value.
What was measured:
[1] = tested on: Staphylococcus aureus; test: Antibacterial activity against Staphylococcus aureus ATCC 29213 after 18 hrs by broth microdilution method; assay type: functional; conditions: ATCC 29213, 18 h
[2] = tested on: Bacillus thuringiensis; test: Antibacterial activity against Bacillus thuringiensis SCSIO BT01 after 18 hrs by broth microdilution method; assay type: functional; conditions: SCSIO BT01, 18 h
[3] = tested on: Bacillus subtilis; test: Antibacterial activity against Bacillus subtilis SCSIO BS01 after 18 hrs by broth microdilution method; assay type: functional; conditions: SCSIO BS01, 18 h
[4] = tested on: Escherichia coli; test: Antibacterial activity against Escherichia coli ATCC 25922 after 18 hrs by broth microdilution method; assay type: functional; conditions: ATCC 25922, 18 h
[5] = tested on: Staphylococcus aureus; test: Antibacterial activity against methicillin-sensitive Staphylococcus aureus ATCC 29213 after 18 hrs by broth microdilution method; assay type: functional, organism-based; conditions: ATCC 29213, 18 h, read-out: IC50
[6] = tested on: Staphylococcus aureus; test: Antibacterial activity against methicillin-resistant Staphylococcus aureus ATCC 33591 after 18 hrs by broth microdilution method; assay type: functional, organism-based; conditions: ATCC 33591, 18 h, read-out: IC50
[7] = tested on: Staphylococcus aureus; test: Antibacterial activity against methicillin-sensitive Staphylococcus aureus 15 after 18 hrs by broth microdilution method; assay type: functional, organism-based; conditions: Staphylococcus aureus, 15, 18 h; read-out: IC50
[8] = tested on: Staphylococcus aureus; test: Antibacterial activity against methicillin-sensitive Staphylococcus aureus 12-28 after 18 hrs by broth microdilution method; assay type: functional, organism-based; conditions: 12-28, 18 h
[9] = tested on: Staphylococcus aureus; test: Antibacterial activity against methicillin-resistant Staphylococcus aureus 12-33 after 18 hrs by broth microdilution method; assay type: functional, organism-based; conditions: 12-33, 18 h, read-out: IC50
[10] = tested on: Staphylococcus epidermidis; test: Antibacterial activity against methicillin-sensitive Staphylococcus epidermidis ATCC 12228 after 18 hrs by broth microdilution method; assay type: functional, organism-based; conditions: ATCC 12228, 18 h, read-out: IC50
[11] = tested on: Staphylococcus epidermidis; test: Antibacterial activity against methicillin-sensitive Staphylococcus epidermidis 12-6 after 18 hrs by broth microdilution method; assay type: functional, organism-based; conditions: 12-6, 18 h
[12] = tested on: Staphylococcus epidermidis; test: Antibacterial activity against methicillin-resistant Staphylococcus epidermidis 12-8 after 18 hrs by broth microdilution method; assay type: functional, organism-based; conditions: 12-8, 18 h, read-out: IC50
[13] = tested on: Enterococcus faecalis; test: Antibacterial activity against vancomycin-sensitive Enterococcus faecalis ATCC 29212 after 18 hrs by broth microdilution method; assay type: functional, organism-based; conditions: ATCC 29212, 18 h, read-out: IC50
[14] = tested on: Enterococcus faecalis; test: Antibacterial activity against vancomycin-resistant Enterococcus faecalis ATCC 51299 after 18 hrs by broth microdilution method; assay type: functional, organism-based; conditions: ATCC 51299, 18 h, read-out: IC50
[15] = tested on: Enterococcus faecalis; test: Antibacterial activity against vancomycin-sensitive Enterococcus faecalis 12-5 after 18 hrs by broth microdilution method; assay type: functional, organism-based; conditions: 12-5, 18 h, read-out: IC50
[16] = tested on: Enterococcus faecalis; test: Antibacterial activity against vancomycin-resistant Enterococcus faecalis 09-9 after 18 hrs by broth microdilution method; assay type: functional, organism-based; conditions: 09-9, 18 h, read-out: IC50
[17] = tested on: Enterococcus faecium; test: Antibacterial activity against vancomycin-resistant Enterococcus faecium ATCC 700221 after 18 hrs by broth microdilution method; assay type: functional, organism-based; conditions: ATCC 700221, 18 h, read-out: IC50
[18] = tested on: Enterococcus faecium; test: Antibacterial activity against vancomycin-resistant Enterococcus faecium 12-1 after 18 hrs by broth microdilution method; assay type: functional, organism-based; conditions: 12-1, 18 h, read-out: IC50
[19] = tested on: Enterococcus faecium; test: Antibacterial activity against vancomycin-sensitive Enterococcus faecium 12-3 after 18 hrs by broth microdilution method; assay type: functional, organism-based; conditions: 12-3, 18 h, read-out: IC50
[20] = tested on: Escherichia coli; test: Antibacterial activity against extended spectrum beta-lactamase-deficient Escherichia coli ATCC 25922 after 18 hrs by broth microdilution method; assay type: functional, organism-based; conditions: ATCC 25922, 18 h, read-out: IC50
[21] = tested on: Escherichia coli; test: Antibacterial activity against extended spectrum beta-lactamase-deficient Escherichia coli 1515 after 18 hrs by broth microdilution method; assay type: functional, organism-based; conditions: Escherichia coli, 1515, 18 h
[22] = tested on: Escherichia coli; test: Antibacterial activity against extended spectrum beta-lactamase-deficient Escherichia coli 12-14 after 18 hrs by broth microdilution method; assay type: functional, organism-based; conditions: 12-14, 18 h, read-out: IC50
[23] = tested on: Escherichia coli; test: Antibacterial activity against extended spectrum beta-lactamase producing Escherichia coli 12-15 after 18 hrs by broth microdilution method; assay type: functional, organism-based; conditions: 12-15, 18 h, read-out: IC50
[24] = tested on: Klebsiella pneumoniae; test: Antibacterial activity against extended spectrum beta-lactamase producing Klebsiella pneumoniae ATCC 700603 after 18 hrs by broth microdilution method; assay type: functional, organism-based; conditions: ATCC 700603, 18 h
[25] = tested on: Klebsiella pneumoniae; test: Antibacterial activity against extended spectrum beta-lactamase-deficient Klebsiella pneumoniae 7 after 18 hrs by broth microdilution method; assay type: functional, organism-based; conditions: Klebsiella pneumoniae, 7, 18 h; read-out: IC50
[26] = tested on: Klebsiella pneumoniae; test: Antibacterial activity against NDM-1 producing Klebsiella pneumoniae ATCC BAA-2146 after 18 hrs by broth microdilution method; assay type: functional, organism-based; conditions: ATCC BAA-2146, 18 h, read-out: IC50
[27] = tested on: Klebsiella pneumoniae; test: Antibacterial activity against extended spectrum beta-lactamase-deficient Klebsiella pneumoniae 12-4 after 18 hrs by broth microdilution method; assay type: functional, organism-based; conditions: 12-4, 18 h
[28] = tested on: Klebsiella pneumoniae; test: Antibacterial activity against extended spectrum beta-lactamase producing Klebsiella pneumoniae 12-8 after 18 hrs by broth microdilution method; assay type: functional, organism-based; conditions: 12-8, 18 h, read-out: IC50
[29] = tested on: Staphylococcus aureus; test: Ratio of levofloxacin IC50 to compound IC50 for methicillin-resistant Staphylococcus aureus 12-33 after 18 hrs by broth microdilution method; assay type: functional

SMILES | MIC [1] [µg/mL] | MIC [2] [µg/mL] | MIC [3] [µg/mL] | MIC [4] [µg/mL] | MIC [5] [µM] | MIC [6] [µM] | MIC [7] [µM] | IC50 [8] [µM] | MIC [9] [µM] | MIC [10] [µM] | IC50 [11] [µM] | MIC [12] [µM] | MIC [13] [µM] | MIC [14] [µM] | MIC [15] [µM] | MIC [16] [µM] | MIC [17] [µM] | MIC [18] [µM] | MIC [19] [µM] | MIC [20] [µM] | further results
CCCc1cc(O)cc2c1Oc1cc(O)cc(CCC)c1C(=O)O2 | 4 (≈ 12.2 µM) | 4 (≈ 12.2 µM) | 8 (≈ 24.4 µM) | > 128 | – | – | – | – | – | – | – | – | – | – | – | – | – | – | – | – | –
CCCc1cc(O)cc2c1Oc1cc(O)c(Cl)c(CCC)c1C(=O)O2 | 8 (≈ 22.1 µM) | 4 (≈ 11 µM) | 8 (≈ 22.1 µM) | > 128 | – | – | – | – | – | – | – | – | – | – | – | – | – | – | – | – | –
CCCc1cc(O)cc2c1Oc1c(Cl)c(O)cc(CCC)c1C(=O)O2 | 8 (≈ 22.1 µM) | 8 (≈ 22.1 µM) | 16 (≈ 44.1 µM) | > 128 | 32 (≈ 11.6 µg/mL) | 64 (≈ 23.2 µg/mL) | 64 (≈ 23.2 µg/mL) | 64 | 64 (≈ 23.2 µg/mL) | 64 (≈ 23.2 µg/mL) | 64 | 32 (≈ 11.6 µg/mL) | 256 (≈ 92.9 µg/mL) | > 256 | > 256 | 256 (≈ 92.9 µg/mL) | > 256 | 256 (≈ 92.9 µg/mL) | > 256 | > 256 | IC50 [21]: > 256 µM; MIC [22]: > 256 µM; MIC [23]: > 256 µM; IC50 [24]: > 256 µM; MIC [25]: > 256 µM; MIC [26]: > 256 µM; IC50 [27]: > 256 µM; MIC [28]: > 256 µM
CCCc1cc(O)c(Cl)c2c1C(=O)Oc1cc(O)c(Cl)c(CCC)c1O2 | 2 (≈ 5.03 µM) | 2 (≈ 5.03 µM) | 2 (≈ 5.03 µM) | > 128 | – | – | – | – | – | – | – | – | – | – | – | – | – | – | – | – | –
CCCc1cc(O)cc2c1Oc1c(Cl)c(O)c(Cl)c(CCC)c1C(=O)O2 | 4 (≈ 10.1 µM) | 2 (≈ 5.03 µM) | 4 (≈ 10.1 µM) | > 128 | 64 (≈ 25.4 µg/mL) | 32 (≈ 12.7 µg/mL) | 64 (≈ 25.4 µg/mL) | 128 | 128 (≈ 50.8 µg/mL) | 32 (≈ 12.7 µg/mL) | 32 | 64 (≈ 25.4 µg/mL) | > 256 | > 256 | > 256 | > 256 | > 256 | > 256 | > 256 | > 256 | IC50 [21]: > 256 µM; MIC [22]: > 256 µM; MIC [23]: > 256 µM; IC50 [24]: > 256 µM; MIC [25]: > 256 µM; MIC [26]: > 256 µM; IC50 [27]: > 256 µM; MIC [28]: > 256 µM
CCCc1c(Cl)c(O)cc2c1Oc1c(Cl)c(O)c(Cl)c(CCC)c1C(=O)O2 | 2 (≈ 4.63 µM) | 1 (≈ 2.32 µM) | 0.5 (≈ 1.16 µM) | > 128 | 4 (≈ 1.73 µg/mL) | 4 (≈ 1.73 µg/mL) | 4 (≈ 1.73 µg/mL) | 4 | 4 (≈ 1.73 µg/mL) | 2 (≈ 0.863 µg/mL) | 4 | 4 (≈ 1.73 µg/mL) | 32 (≈ 13.8 µg/mL) | 32 (≈ 13.8 µg/mL) | 32 (≈ 13.8 µg/mL) | 32 (≈ 13.8 µg/mL) | 32 (≈ 13.8 µg/mL) | 16 (≈ 6.91 µg/mL) | 32 (≈ 13.8 µg/mL) | > 256 | IC50 [21]: > 256 µM; MIC [22]: > 256 µM; MIC [23]: > 256 µM; IC50 [24]: > 256 µM; MIC [25]: > 256 µM; MIC [26]: > 256 µM; IC50 [27]: > 256 µM; MIC [28]: > 256 µM
CCCc1c(Cl)c(OC)cc2c1Oc1c(Cl)c(O)c(Cl)c(CCC)c1C(=O)O2 | 0.5 (≈ 1.12 µM) | 0.5 (≈ 1.12 µM) | 0.25 (≈ 0.561 µM) | > 128 | 8 (≈ 3.57 µg/mL) | 4 (≈ 1.78 µg/mL) | 4 (≈ 1.78 µg/mL) | 4 | 8 (≈ 3.57 µg/mL) | 4 (≈ 1.78 µg/mL) | 4 | 2 (≈ 0.891 µg/mL) | 128 (≈ 57.1 µg/mL) | > 256 | > 256 | 256 (≈ 114 µg/mL) | 256 (≈ 114 µg/mL) | 16 (≈ 7.13 µg/mL) | 256 (≈ 114 µg/mL) | > 256 | IC50 [21]: > 256 µM; MIC [22]: > 256 µM; MIC [23]: > 256 µM; IC50 [24]: > 256 µM; MIC [25]: > 256 µM; MIC [26]: > 256 µM; IC50 [27]: > 256 µM; MIC [28]: > 256 µM; Ratio IC50 [29]: 2
CCCc1cc(O)c(Cl)c2c1Oc1c(Cl)c(O)c(Cl)c(CCC)c1C(=O)O2 | 4 (≈ 9.27 µM) | 1 (≈ 2.32 µM) | 1 (≈ 2.32 µM) | > 128 | 4 (≈ 1.73 µg/mL) | 4 (≈ 1.73 µg/mL) | 4 (≈ 1.73 µg/mL) | 8 | 8 (≈ 3.45 µg/mL) | 4 (≈ 1.73 µg/mL) | 2 | 4 (≈ 1.73 µg/mL) | 16 (≈ 6.91 µg/mL) | 16 (≈ 6.91 µg/mL) | 16 (≈ 6.91 µg/mL) | 16 (≈ 6.91 µg/mL) | 16 (≈ 6.91 µg/mL) | 16 (≈ 6.91 µg/mL) | 32 (≈ 13.8 µg/mL) | 64 (≈ 27.6 µg/mL) | IC50 [21]: 64 µM; MIC [22]: 64 µM (≈ 27.6 µg/mL); MIC [23]: 64 µM (≈ 27.6 µg/mL); IC50 [24]: 256 µM; MIC [25]: 256 µM (≈ 111 µg/mL); MIC [26]: 256 µM (≈ 111 µg/mL); IC50 [27]: 128 µM; MIC [28]: 128 µM (≈ 55.3 µg/mL); Ratio IC50 [29]: 2
